In one data set the target is T1, human PTP-1B (Homo sapiens, UniProt P18031).
T1 construct: recombinant human PTP-1B[1-298] or PTP-1B[1-322]
T1 sequence (P18031 1-298 limits assumed): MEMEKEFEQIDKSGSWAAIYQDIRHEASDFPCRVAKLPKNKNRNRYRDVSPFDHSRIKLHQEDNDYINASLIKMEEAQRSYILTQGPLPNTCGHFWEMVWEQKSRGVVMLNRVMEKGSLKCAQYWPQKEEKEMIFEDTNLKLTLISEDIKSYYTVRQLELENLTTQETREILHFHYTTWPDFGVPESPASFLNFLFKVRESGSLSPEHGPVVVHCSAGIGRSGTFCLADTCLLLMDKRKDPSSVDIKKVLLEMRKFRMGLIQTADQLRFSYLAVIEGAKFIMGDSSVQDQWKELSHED
Kind of data set: PTP-1B inhibitory activity in vitro (IC50). Type of data set: biochemical. On the procedure: Assessment of human PTP-1B (hPTP-1B) activity in the presence of various agents is determined by measuring the amount of inorganic phosphate released from a phosphopeptide substrate using a 96-well microtiter plate format. The assay (100 μL) is performed in an assay buffer comprised of 50 mM TRIS (pH 7.5), 50 mM NaCl, 3 mM DTT at ambient temperature. The assay is typically performed in the presence of 0.4% dimethyl sulfoxide (DMSO). However, concentrations as high as 10% are used with certain poorly soluble compounds. […] Inorganic phosphate, a product of the enzyme reaction, is quantitiated after 15 min as the green color resulting from complexing with the Malichite reagent and is determined as an A620 using a Molecular Devices (Sunnyvale, Calif.) SpectraMAX Plus spectrophotometer. […] Activity is defined as the net change in absorbance resulting from the activity of the uninhibited hPTP-1B[1-411] minus that of a tube with acid-inactivated hPTP-1B[1-411]. […]
Alternatively, the assessment of human PTP-1B activity in the presence of various agents may be determined by measuring the hydrolysis products of known competing substrates. For example, cleavage of substrate para-nitrophenylphosphate (pNPP) results in the release of the yellow-colored para-nitrophenol (pNP) which can be monitored in real time using a spectrophotometer. […]

The term IC50 denotes the concentration that inhibits the measured activity by half. A higher IC50 goes with lower potency. As a reminder, the melting point is the temperature, or range, at which the solid turns liquid.

Compound `O=C1CN(c2cc3cc(C4CCCCC4)ccc3cc2O)S(=O)(=O)N1` [Example No. 23, 5-(7-Cyclohexyl-3-hydroxynaphthalen-2-yl)-1,1-dioxo-1,2,5-thiadiazolidin-3-one] had a half-maximal inhibitory concentration (IC50) against human PTP-1B of 113 nM.
Regarding `COc1cc2cc(N3CC(=O)NS3(=O)=O)c(O)cc2oc1=O` [Example 70, 5-(7-Hydroxy-3-methoxy-2-oxo-2H-chromen-6-yl)-1,1-dioxo-1,2,5-thiadiazolidin-3-one], the melting point is 226 to 228 °C.
`O=C1CN(c2cc3cc(C4CCCC4)ccc3cc2O)S(=O)(=O)N1` [Example No. 22, 5-(7-Cyclopentyl-3-hydroxynaphthalen-2-yl)-1,1-dioxo-1,2,5-thiadiazolidin-3-one]: the IC50 on human PTP-1B was determined as 85 nM.

These data come from patent publication US7700633B2, “Organic compounds” (Novartis AG, priority 2005, dated 2010).
